Activity calls are given as the source filed them.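 Rule for the calls: active = AC50, the dose giving half-maximal effect, exceeds a fixed cutoff for a compound that rescues yeast growth under heat; inactive = the rest, inconclusive results apart.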 Where a SMILES comes first, the peptide text is derived from it.
What follows are molecules tested on S. cerevisiae Burl-1 ts mutant growth, BacTiter-Glo, 38.5C 24 h (assay: growth induction of Burl-1 ts yeast mutant, dose response, counter-screen for SUMOylation pathway inhibitor project, whole organism, S. cerevisiae, luminescence (AID 463199)).
With `COc1ccc2nc(SCC(=O)N(C)CC(=O)Nc3ccc(F)cc3)[nH]c2c1` the AC50 was > 42 µM (inactive).
`Cc1ccc(CC(=O)O/N=C(\N)c2cccc([N+](=O)[O-])c2)cc1` was tested, and the AC50 was > 42 µM (inactive).
For `O=C(c1ccco1)N1CCN(C2CC(=O)N(c3ccc(F)c(Cl)c3)C2=O)CC1` (stereo not drawn), the AC50 was > 42 µM (inactive).
In the case of `Cc1c(C(=O)NC(=S)Nc2ccccc2N2CCCC2)cccc1[N+](=O)[O-]`, the AC50 is reported as > 42 µM (inactive).
With `Cc1c(C(=O)N2CCN(CCc3ccccc3)CC2)oc2ccccc12` the AC50 was > 42 µM (inactive).
In the case of `C#CCn1c(=NC(=O)CN2C(=O)CCC2=O)sc2cccc(OC)c21`, the AC50 is reported as > 42 µM (inactive).
In the case of `O=C1c2ccccc2C(=O)N1CCSc1ccccc1`, the AC50 is reported as > 42 µM (inactive).
In the case of `O=S(=O)(Nc1ccc(N2CCOCC2)cc1)c1cccs1`, the AC50 is reported as > 42 µM (inactive).
With `O=C1CCc2cc(S(=O)(=O)N3CCC(C(=O)NC4CCCC4)CC3)ccc2N1` the AC50 was > 42 µM (inactive).
For `COC(=O)C1C2C=CC3(CN(CCc4ccccc4)C(=O)C13)O2` (stereo not drawn), the AC50 was > 21 µM (inactive).
In the case of `CCn1c(SCC(=O)Nc2ccc(OCc3ccccc3)cc2)nnc1-c1ccco1`, the AC50 is reported as > 42 µM (inactive).
With `O=C(O)CSc1ncnc2sc(-c3ccccc3)cc12` the AC50 was > 42 µM (inactive).
In the case of `CN(C=O)CP(=O)(O)CN(C)C=O`, the AC50 is reported as > 42 µM (inactive).
With `N#CC1=C(SCC(N)=O)NC(=O)CC1c1ccccc1Cl` (stereo not drawn) the AC50 was > 42 µM (inactive).
With `CNC(=O)NNC(=O)c1csc(-c2ccc(C(F)(F)F)cc2Cl)n1` the AC50 was > 42 µM (inactive).
`Cc1cc(C)c2c(=O)[nH]cnc2n1` was tested, and the AC50 was > 42 µM (inactive).
With `COc1cc(NC(=O)C2=CC(c3ccco3)=NS(=O)(=O)N2C)cc(OC)c1OC` the AC50 was > 42 µM (inactive).
With `CCCNCc1cc(OCC)c(OCC(N)=O)cc1Br` the AC50 was > 42 µM (inactive).
`CCC(C)(C(=O)NC1CCCC1)N(C(=O)c1ccccn1)c1ccc(C)cc1` (stereo not drawn) was tested, and the AC50 was > 42 µM (inactive).
For `CCOC(=O)COc1nc(-c2ccc(C)cc2)cc(-c2ccco2)c1C#N`, the AC50 was > 42 µM (inactive).
For `CN(C)S(=O)(=O)c1cc(NC(=O)CSc2nn(-c3ccc(Cl)cc3)c(=S)s2)ccc1Cl`, the AC50 was > 42 µM (inactive).
For `COCCn1c(C)cc(C(=O)CN2C(=O)NC3(CCCCCCC3)C2=O)c1C`, the AC50 was > 42 µM (inactive).
`NC(=O)c1cccc2cc3ccccc3cc12` was tested, and the AC50 was > 42 µM (inactive).
`CC(C)c1ccc(NC(=O)COc2nnc(-c3cccs3)c(-c3cccs3)n2)cc1` was tested, and the AC50 was > 42 µM (inactive).
With `CSc1ccc(CCNC(=O)C2CCCN(S(=O)(=O)N3CCOCC3)C2)cc1` (stereo not drawn) the AC50 was > 42 µM (inactive).
With `COc1ccc(N2CCN(C(=O)C3CCCN(S(=O)(=O)c4ccc5c(c4)oc(=O)n5C)C3)CC2)cc1` (stereo not drawn) the AC50 was > 21 µM (inactive).
For `CC(=O)Nc1ccc(-c2csc(NC(=O)C3CC(=O)N(c4ccc5c(c4)OCCO5)C3)n2)cc1` (stereo not drawn), the AC50 was > 42 µM (inactive).
In the case of `COC(=O)c1cccc(NC(=O)CN(c2ccc3c(c2)OCO3)S(C)(=O)=O)c1C`, the AC50 is reported as > 42 µM (inactive).
For `O=C(CSc1nc2ccc(Nc3nc(N4CCOCC4)nc(N4CCOCC4)n3)cc2s1)N1CCOCC1`, the AC50 was > 42 µM (inactive).
For `C/C(CC(=O)NC1CCCCC1)=N\NC(=O)Cc1ccc(-c2ccccc2)cc1`, the AC50 was > 42 µM (inactive).
For `O=C(NCCCN1CCOCC1)C1CCC(=O)N1CCc1ccccc1` (stereo not drawn), the AC50 was > 42 µM (inactive).
With `OCCN1CN=C(Nc2nc3ccccc3o2)NC1` the AC50 was > 42 µM (inactive).
In the case of `Cn1c(CN2CCOCC2)nnc1SCC(N)=O`, the AC50 is reported as > 42 µM (inactive).
In the case of `CCn1c(SCc2nc3ccccc3[nH]2)nnc1-c1cccnc1`, the AC50 is reported as > 42 µM (inactive).
With `COc1ccc(-c2csc(NC(=O)CS(=O)(=O)c3ccc(F)cc3)n2)cc1OC` the AC50 was > 42 µM (inactive).
In the case of `CC(c1ccccn1)N(CCN(C)C)C(=S)Nc1cccc(F)c1` (stereo not drawn), the AC50 is reported as > 42 µM (inactive).
With `O=C1CCC(=O)N1CCOP1(=O)COc2ccccc2OC1` the AC50 was > 42 µM (inactive).
With `O=C(NCc1ccco1)c1ccc(Br)c(S(=O)(=O)N2CCCCC2)c1` the AC50 was > 42 µM (inactive).
With `COc1cccc(S(=O)(=O)Nc2cccc(C(=O)N3CCOCC3)c2)c1` the AC50 was > 42 µM (inactive).
In the case of `COCCCNC(=O)c1cc(C(=O)c2c(-c3c(Cl)cccc3Cl)noc2C)c[nH]1`, the AC50 is reported as > 42 µM (inactive).
`COc1ccc(C(=O)Nn2c(SCC(=O)NCc3ccccc3)nc3ccccc3c2=O)cc1` was tested, and the AC50 was > 42 µM (inactive).
`O=c1cc(COc2ncnc3ccccc23)nc2sccn12` was tested, and the AC50 was > 42 µM (inactive).
`O=Nc1c(-c2cccc([N+](=O)[O-])c2)nc2ncccn12` was tested, and the AC50 was > 42 µM (inactive).
For `CC(=O)Nc1ccc(S(=O)(=O)Nc2ccc(S(=O)(=O)Nc3ncccn3)cc2)cc1`, the AC50 was > 42 µM (inactive).
In the case of `O=S(=O)(Cc1ccccc1)NCc1ccccn1`, the AC50 is reported as > 42 µM (inactive).
With `COC(=O)c1cc(N=Nc2c(C)[nH]c3ccccc23)cc(C(=O)OC)c1` the AC50 was > 42 µM (inactive).
For `Cc1cccc(OCc2nnc(SCC(=O)O)n2-c2ccccc2)c1`, the AC50 was > 42 µM (inactive).
In the case of `CCc1cc2c(=O)c(-c3nc4ccccc4[nH]3)coc2c(CN2CCCCC2)c1O`, the AC50 is reported as > 42 µM (inactive).
With `O=C(CSc1ccc(Br)cc1)Nc1ccccc1N1CCOCC1` the AC50 was > 42 µM (inactive).
With `COc1cc(CN2CCN(c3ncccn3)CC2)cc(OC)c1` the AC50 was > 42 µM (inactive).
In the case of `O=C(Nc1nccs1)c1ccc(S(=O)(=O)c2ccccc2)cc1`, the AC50 is reported as > 42 µM (inactive).
In the case of `CCCC(=O)Nc1ccc(Sc2ccc([N+](=O)[O-])cc2)cc1`, the AC50 is reported as > 42 µM (inactive).
In the case of `COc1ccc(C(=O)NCC(=O)Nc2ccccc2)cc1OC`, the AC50 is reported as > 42 µM (inactive).
For `O=C(NC1CCCCC1)c1ccc2snnc2c1`, the AC50 was > 42 µM (inactive).
For `O=C(Cc1ccc(Cl)cc1)NC(=S)Nc1ccccc1N1CCOCC1`, the AC50 was > 42 µM (inactive).
For `CCOc1ccc(N(CC)S(=O)(=O)c2cccc3nsnc23)cc1`, the AC50 was > 42 µM (inactive).
`O=C(CCSc1ccccc1)NNC(=O)c1ccccc1F` was tested, and the AC50 was > 42 µM (inactive).
With `O=C(COC(=O)c1ccc([N+](=O)[O-])s1)c1ccc[nH]1` the AC50 was > 42 µM (inactive).
For `CS(=O)(=O)N(CCc1ccccc1)CC(=O)NCc1cccnc1`, the AC50 was > 42 µM (inactive).
`COc1ccc(CNC(=O)c2cc(=O)c3cc(C)cc(C)c3o2)cc1` was tested, and the AC50 was > 42 µM (inactive).
For `O=C1C2CCCCN2C(=O)N1CCCCN1CCN(c2ccccc2Oc2ccccc2)CC1` (stereo not drawn), the AC50 was > 42 µM (inactive).
With `CCOC(=O)C1(c2ccccc2)CCN(CCC(=O)Nc2ccccc2OC)CC1` the AC50 was > 42 µM (inactive).
For `On1c(-c2ccccc2Cl)nc2ncccc21`, the AC50 was > 42 µM (inactive).
In the case of `Cc1cc(C)n(-c2ccc(C(=O)C(C#N)c3nc4ccccc4n3C)cc2)n1` (stereo not drawn), the AC50 is reported as > 42 µM (inactive).
In the case of `C/C=C\C=C/C(=O)Nc1cccc(C2=NOC3(C2)C[C@@H](C(N)=O)N(C(=O)c2ccccc2)C3)c1` (stereo partly drawn), the AC50 is reported as > 42 µM (inactive).
For `CC(=O)NC(CC(C)C)C(=O)NC(CO)C(=O)NC(CCC(=O)O)C(=O)NC(C)C(=O)NC(CC(C)C)C(N)=O` (stereo not drawn) (Ac-LSEAL-NH2; configuration not given here), the AC50 was > 42 µM (inactive).
With `CCOC(=O)c1oc2ccccc2c1COC(=O)CNC(=O)c1cccc(C)c1` the AC50 was > 42 µM (inactive).
`COc1ccc(N2CCN(C(=O)Cn3nnc(-c4ccc(OC)c(OC)c4)n3)CC2)cc1` was tested, and the AC50 was > 42 µM (inactive).
In the case of `CCCn1nc(C(=O)NNC(=O)c2cc(S(=O)(=O)NC)ccc2Br)c2ccccc2c1=O`, the AC50 is reported as > 42 µM (inactive).
With `CCOC(=O)Cc1csc(NC(=O)NC2(C(F)(F)F)Oc3ccccc3O2)n1` the AC50 was > 42 µM (inactive).
`COCCN(C(=O)C1CC1)c1nnc(-c2ccc(C)cc2)s1` was tested, and the AC50 was > 42 µM (inactive).
In the case of `O=C1CCN(Cc2ccccc2)CCN1CCOc1ccccc1`, the AC50 is reported as > 42 µM (inactive).
`Cc1ccc(S(=O)(=O)N2CCOCC2)cc1NC(=O)COC(=O)CNC(=O)c1ccccc1` was tested, and the AC50 was > 42 µM (inactive).
`COc1ccccc1NC(=O)c1nn(C)cc1Br` was tested, and the AC50 was > 42 µM (inactive).
`COc1ccccc1CNc1ncnc2c1nnn2Cc1ccccc1` was tested, and the AC50 was > 42 µM (inactive).
`COc1ccc(C(=O)N/C(=C\c2cn(C)c3ccccc23)C(=O)OCCN(C)C)cc1` was tested, and the AC50 was > 42 µM (inactive).
In the case of `COCC(C)n1c(SCC(=O)NNC(=O)c2ccccc2)nc2ccccc2c1=O` (stereo not drawn), the AC50 is reported as > 42 µM (inactive).
For `CN(C)c1cccc(C(=O)Nc2cc(C(F)(F)F)ccc2-n2cnc3ccccc32)c1`, the AC50 was > 42 µM (inactive).
For `COc1cc2c(cc1OC)C(c1ccc(SC)cc1)CC(=O)N2` (stereo not drawn), the AC50 was > 42 µM (inactive).
`Cn1nc(C(=O)NCCc2ccc(Cl)cc2)c2c1-c1ccccc1S(=O)(=O)C2` was tested, and the AC50 was > 42 µM (inactive).
For `O=S(=O)(NCc1ccc(Cl)cc1)c1cnc[nH]1`, the AC50 was > 42 µM (inactive).
For `Cc1ccc(NC(=O)Cn2sc3nc(C)cc(C)c3c2=O)c(Cl)c1`, the AC50 was > 42 µM (inactive).
`COc1ccc2oc(=O)c(C(=O)NCc3ccco3)cc2c1` was tested, and the AC50 was 15.5 µM.
For `O=C(c1cc2ccccc2o1)N1CCCC1`, the AC50 was > 42 µM (inactive).
In the case of `CC1(C)CC(=O)C(CC2CCCCC2=O)C(=O)C1` (stereo not drawn), the AC50 is reported as > 42 µM (inactive).
For `COc1ccc(-c2cc(C#N)nc(N3CCN(c4ccccc4)CC3)n2)cc1`, the AC50 was > 42 µM (inactive).
With `Cc1cc(C(=O)N/N=C/c2ccc3c(c2)OCO3)c2ccccc2n1` the AC50 was > 42 µM (inactive).
With `Cc1nn(Cc2ccc(C(=O)Nc3ccccc3C(F)(F)F)o2)c(C)c1Br` the AC50 was > 42 µM (inactive).
For `COc1cc(C(=O)COC(=O)c2cc([N+](=O)[O-])ccc2N2CCOCC2)ccc1OC(F)F`, the AC50 was > 42 µM (inactive).
With `CCn1nc(C(=O)OCc2cccc(S(=O)(=O)N(C)C)c2)c2ccccc2c1=O` the AC50 was > 42 µM (inactive).
In the case of `NNC(=O)c1oc2nc(-c3ccccc3)cc(-c3ccccc3)c2c1N`, the AC50 is reported as > 42 µM (inactive).
`O=C1CC(N(CCc2ccccc2)C(=S)Nc2ccccc2)C(=O)N1c1ccc(F)cc1` (stereo not drawn) was tested, and the AC50 was > 42 µM (inactive).
With `Cc1cccc(NC(=S)NCc2ccco2)c1C` the AC50 was > 42 µM (inactive).
With `COc1ccc(NC(=O)Nc2ccc(OC)cc2)cc1` the AC50 was > 42 µM (inactive).
`Cc1ccc(NC(=O)Nc2cccc(C(F)(F)F)c2)nc1` was tested, and the AC50 was > 42 µM (inactive).
In the case of `CC(C)Oc1ccc(C2(C#N)CC[N+](C)(C)CC2)cc1`, the AC50 is reported as > 42 µM (inactive).
`CC(C)CCNC(=O)Nc1ccc2c(c1)N(C)C(=O)CS2` was tested, and the AC50 was > 42 µM (inactive).
For `O=C(NCc1csc(-c2cccs2)n1)Nc1ccc(F)cc1F`, the AC50 was > 42 µM (inactive).

Reference: PubChem BioAssay AID463199 (Broad Institute, 2010)
